Experimental data taken from US11964973B2 (priority 2019, dated 2024).
Where two headings read alike, the source gives them in different places.

Experiments:
[1] = tested on: Human venous whole blood (IFN-γ); experiment: Human whole blood IFN-γ assay; assay type: cell-based; details: Homo sapiens
Procedure: Assay 10: Human Whole Blood IFN-γ Assay
Human venous whole blood (22.5 μL per well), obtained from healthy donors, was pre-treated with compounds for one hour at 37° C. in a humidified 95% air/5% CO2 incubator. The blood was stimulated with 2.5 μL anti-human CD3 and anti-CD28 mAb at a final concentration of 1 μg/mL each for 24 hours at 37° C. IFN-γ in the supernatants was measured using AlphLISA kit (Cat #AL217).

DGKα = DGKα (Homo sapiens (Human), UniProt P23743); experiment: biochemical; assay type: biochemical; details: liposome (LIPGLO) assay
[2] = tested on: OT-1 CD8+ T cells with SIINFEKL-loaded MC38 tumor cells; experiment: Murine cytotoxic T lymphocyte assay (IFN-γ); assay type: cell-based, mouse; details: murine cytotoxic T lymphocyte, IFN-γ, read-out: msCTL INFg IC50
From the text: Assay 6: Murine Cytotoxic T Lymphocyte Assay
An antigen-specific cytolytic T-cell (CTL) assay was developed to evaluate functionally the ability of DGKα and DGKζ inhibitors to enhance effector T cell mediated tumor cell killing activity. CD8+ T-cells isolated from the OT-1 transgenic mouse recognize antigen presenting cells, MC38, that present the ovalbumin derived peptide […]. Recognition of the cognate antigen initiates the cytolytic activity of the OT-1 antigen-specific CD8+ T cells.
Functional CTL cells were generated as follows: OT-1 splenocytes from 8-12 week old mice were isolated and expanded in the presence of the […] peptide at 1 μg/mL and mIL2 at 10 U/mL. After three days, fresh media with […] was added. On day 5 of the expansion, the CD8+ T cells were isolated and ready for use. Activated CTL cells may be stored frozen for 6 months. Separately, one million MC38 tumor cells were pulsed with 1 μg/mL of […]-OVA peptide for 3 hours at 37° C. The cells were washed (3×) with fresh media to remove excess peptide. Finally, CTL cells that were pretreated with DGK inhibitors for 1 hour in a 96-well U bottom plate were combined with the antigen loaded MC38 tumor cells at a 1:10 ratio. The cells were then spun at 700 rpm for 5 min and placed in an incubator overnight at 37° C. After 24 hours, the supernatant was collected for analysis of IFN-γ cytokine levels by AlphaLisa purchased from Perkin Elmer.

naïve human CD8 T cells = experiment: CellTiter-Glo CD8 T cell proliferation assay; assay type: cell-based; details: Homo sapiens, read-out: CD8 GLO Normalized EC50
Procedure: Assay 4: CellTiter-Glo CD8 T Cell Proliferation Assay
Frozen naïve human CD8 T cells were thawed in RPMI+10% FBS, incubated for 2 h in 37° C., and counted. The 384-well tissue culture plate was coated overnight at 4° C. with 20 μl anti-human CD3 at 0.1 μg/mL in plain RPMI, which was removed off the plate before 20 k/40 μL CD8 T cells with 0.5 μg/ml soluble anti-human CD28 were added to each well. The compounds were echoed to the cell plate immediately after the cells were plated. After 72 h incubation at 37° C. incubator, 10 μL CellTiter-glo reagent (Promega catalog number G7570) was added to each well. The plate was vigorously shaken for 5 mins, incubated at room temperature for another 15 mins and read on Envision for CD8 T cell proliferation. In analysis, 0.1 μg/mL anti-CD3 and 0.5 μg/mL anti-CD28 stimulated CD8 T cell signal was background.

Human DGKα(9-727) = Human DGKα(9-727) (Homo sapiens (Human), UniProt P23743); experiment: biochemical; details: Table A; liposome (LIPGLO) assay; read-out: DGKα
human DGKζ = human DGKζ (Homo sapiens (Human), UniProt Q13574); experiment: biochemical; assay type: biochemical; details: liposome (LIPGLO) assay
[3] = tested on: human venous whole blood, CD8 positive population (pERK); experiment: DGK human whole blood pERK assay; assay type: cell-based; details: Homo sapiens, CD8 positive, human whole blood pERK; read-out: DGK HWB
Procedure, shortened: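 Read-out is the pERK-positive fraction of CD8+ cells measured by flow cytometry. Donor venous blood (heparin) saw compound for one hour at 37° C before a 15-minute anti-CD3 challenge (1 μg/mL final) with cross-linking anti-mouse IgG.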

[4] = 24 h, human whole blood, anti-CD3 plus anti-CD28, 24 hours, read-out: INFg Whole Blood Normalized Agonist EC50

Chain of DGKα (P23743 whole entry, looked up): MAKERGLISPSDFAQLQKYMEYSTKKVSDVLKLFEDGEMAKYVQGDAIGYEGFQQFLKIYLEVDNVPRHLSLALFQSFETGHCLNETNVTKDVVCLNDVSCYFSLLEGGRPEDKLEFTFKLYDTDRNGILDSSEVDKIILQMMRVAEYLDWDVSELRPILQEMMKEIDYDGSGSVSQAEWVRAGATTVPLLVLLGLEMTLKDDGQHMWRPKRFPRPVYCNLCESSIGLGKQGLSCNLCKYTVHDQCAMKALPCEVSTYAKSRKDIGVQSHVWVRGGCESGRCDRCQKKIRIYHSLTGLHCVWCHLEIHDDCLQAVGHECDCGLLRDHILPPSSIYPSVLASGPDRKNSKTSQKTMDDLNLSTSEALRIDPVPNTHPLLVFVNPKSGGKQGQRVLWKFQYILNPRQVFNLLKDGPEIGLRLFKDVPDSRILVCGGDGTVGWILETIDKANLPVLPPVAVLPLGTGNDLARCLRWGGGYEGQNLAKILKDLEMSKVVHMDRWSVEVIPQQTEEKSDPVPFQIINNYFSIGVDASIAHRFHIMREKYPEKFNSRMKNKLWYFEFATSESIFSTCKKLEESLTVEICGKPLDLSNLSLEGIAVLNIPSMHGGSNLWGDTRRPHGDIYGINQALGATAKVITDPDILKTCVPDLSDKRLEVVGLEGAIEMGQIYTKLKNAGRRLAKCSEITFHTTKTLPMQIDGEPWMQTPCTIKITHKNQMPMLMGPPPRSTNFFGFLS
Chain of human DGKζ (Q13574 whole entry, looked up): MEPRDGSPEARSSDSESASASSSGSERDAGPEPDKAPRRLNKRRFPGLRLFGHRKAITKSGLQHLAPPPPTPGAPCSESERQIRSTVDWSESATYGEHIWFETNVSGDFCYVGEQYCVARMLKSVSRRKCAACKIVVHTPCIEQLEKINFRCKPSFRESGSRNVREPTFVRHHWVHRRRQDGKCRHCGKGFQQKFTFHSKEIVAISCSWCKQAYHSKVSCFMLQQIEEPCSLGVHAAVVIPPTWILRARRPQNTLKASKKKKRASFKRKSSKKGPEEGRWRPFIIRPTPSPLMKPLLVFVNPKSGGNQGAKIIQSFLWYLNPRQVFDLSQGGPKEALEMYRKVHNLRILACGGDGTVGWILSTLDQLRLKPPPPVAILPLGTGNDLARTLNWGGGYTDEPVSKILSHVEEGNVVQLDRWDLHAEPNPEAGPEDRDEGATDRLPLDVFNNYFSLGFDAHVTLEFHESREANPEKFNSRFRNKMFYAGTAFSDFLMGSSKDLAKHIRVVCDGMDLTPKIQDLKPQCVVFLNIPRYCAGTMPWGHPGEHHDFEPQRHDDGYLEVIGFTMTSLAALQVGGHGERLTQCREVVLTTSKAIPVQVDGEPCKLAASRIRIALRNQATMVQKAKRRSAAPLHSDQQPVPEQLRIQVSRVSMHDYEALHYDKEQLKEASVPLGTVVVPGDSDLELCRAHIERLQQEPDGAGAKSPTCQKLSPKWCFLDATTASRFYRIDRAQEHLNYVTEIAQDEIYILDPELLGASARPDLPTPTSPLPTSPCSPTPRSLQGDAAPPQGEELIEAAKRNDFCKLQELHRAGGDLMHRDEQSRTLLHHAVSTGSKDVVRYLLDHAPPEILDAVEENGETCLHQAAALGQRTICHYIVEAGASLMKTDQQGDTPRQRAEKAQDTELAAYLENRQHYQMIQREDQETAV
Chain of Human DGKα(9-727) (P23743 whole entry, looked up): as the sequence (P23743 whole entry, looked up) above

Structure (SMILES) | IC50 (DGKα; read-out: DGKα LIPGLO IC50) | IC50 ([2]; Mus musculus, MC-38) | EC50 (naïve human CD8 T cells) | IC50 (human DGKζ; read-out: DGKζ LIPGLO IC50) | further results
Cn1c(=O)c(C#N)c(N2CCC(Oc3ccc(Cl)cc3)CC2)c2nc(Cl)ccc21 [Example 16, 6-chloro-4-(4-(4-chlorophenoxy)piperidin-1-yl)-1-methyl-2-oxo-1,2-dihydro-1,5-naphthyridine-3-carbonitrile] | 1700 nM | 1100 nM | 93 nM | – | EC50 [1, 4]: 10000 nM
Cn1c(=O)c([N+](=O)[O-])c(N2CCC(Oc3cccc(Cl)c3)CC2)c2cc(F)ccc21 [Example 7, 4-(4-(3-chlorophenoxy)piperidin-1-yl)-6-fluoro-1-methyl-3-nitroquinolin-2(1H)-one] | – | – | 2300 nM | – | –
CCC(C)(C)c1ccc(O[C@@H]2CCN(c3c(C#N)c(=O)n(C)c4ccc(C#N)nc34)C[C@H]2C)cc1 (single isomer, unassigned) [Example 231, 5-methyl-8-(trans-3-methyl-4-(4-(tert-pentyl)phenoxy)piperidin-1-yl)-6-oxo-5,6-dihydro-1,5-naphthyridine-2,7-dicarbonitrile (rel)] | – | – | – | – | IC50 (Human DGKα(9-727)): 1600 nM; IC50 (human DGKζ; Table A, read-out: DGKζ): 83000 nM; EC50 [3]: 400 nM; EC50 ([1]; human whole blood IFN-γ, read-out: INFg Whole Blood): 510 nM; IC50 (DGKα; Table A, read-out: DGKα): 490 nM
Cn1c(=O)c(C#N)c(N2CCC(Oc3cccc(F)c3)CC2)c2nc(Cl)ccc21 [Example 45, 6-chloro-4-(4-(3-fluorophenoxy)piperidin-1-yl)-1-methyl-2-oxo-1,2-dihydro-1,5-naphthyridine-3-carbonitrile] | – | 10000 nM | 98 nM | – | –
Cn1c(=O)c(C#N)c(N2CCC(Oc3ccccc3C#N)CC2)c2nc(Cl)ccc21 [Example 43, 6-chloro-4-(4-(2-cyanophenoxy)piperidin-1-yl)-1-methyl-2-oxo-1,2-dihydro-1,5-naphthyridine-3-carbonitrile] | 1500 nM | 10000 nM | 10000 nM | 27000 nM | –
COc1ccc(C(F)(F)F)cc1OC1CCN(c2c([N+](=O)[O-])c(=O)n(C)c3ccc(F)cc23)CC1 [Example 8, 6-fluoro-4-(4-(2-methoxy-5-(trifluoromethyl)phenoxy)piperidin-1-yl)-1-methyl-3-nitroquinolin-2(1H)-one] | – | – | 320 nM | – | –
Cn1c(=O)c([N+](=O)[O-])c(N2CCC(Oc3cccc(C#N)c3)CC2)c2cc(F)ccc21 [Example 6, 3-((1-(6-fluoro-1-methyl-3-nitro-2-oxo-1,2-dihydroquinolin-4-yl)piperidin-4-yl)oxy)benzonitrile] | – | – | 10000 nM | – | –
COc1ccccc1OC1CCN(c2c(C#N)c(=O)n(C)c3ccc(Cl)nc23)CC1 [Example 35, 6-chloro-4-(4-(2-methoxyphenoxy)piperidin-1-yl)-1-methyl-2-oxo-1,2-dihydro-1,5-naphthyridine-3-carbonitrile] | 290 nM | – | 210 nM | 12000 nM | –
Cn1c(=O)c([N+](=O)[O-])c(N2CCC(Oc3cccc(F)c3)CC2)c2cc(F)ccc21 [Example 9, 6-fluoro-4-(4-(3-fluorophenoxy)piperidin-1-yl)-1-methyl-3-nitroquinolin-2(1H)-one] | – | – | 790 nM | – | –
Cn1c(=O)c(C#N)c(N2CCC(Oc3cc(F)ccc3Cl)CC2)c2nc(Cl)ccc21 [Example 23, 6-chloro-4-(4-(2-chloro-5-fluorophenoxy)piperidin-1-yl)-1-methyl-2-oxo-1,2-dihydro-1,5-naphthyridine-3-carbonitrile] | 66000 nM | 10000 nM | – | 58000 nM | –
Cn1c(=O)c(C#N)c(N2CCC(Oc3ccc(OC(F)(F)F)cc3)CC2)c2nc(Cl)ccc21 [Example 19, 6-chloro-1-methyl-2-oxo-4-(4-(4-(trifluoromethoxy)phenoxy)piperidin-1-yl)-1,2-dihydro-1,5-naphthyridine-3-carbonitrile] | 320 nM | 210 nM | 280 nM | – | EC50 [1, 4]: 10000 nM
Cc1cccc(OC2CCN(c3c(C#N)c(=O)n(C)c4ccc(Cl)nc34)CC2)c1 [Example 22, 6-chloro-1-methyl-2-oxo-4-(4-(m-tolyloxy)piperidin-1-yl)-1,2-dihydro-1,5-naphthyridine-3-carbonitrile] | 150 nM | – | 620 nM | 5700 nM | –
Cn1c(=O)c(C#N)c(N2CCC(Oc3ccccc3F)CC2)c2nc(Cl)ccc21 [Example 44, 6-chloro-4-(4-(2-fluorophenoxy)piperidin-1-yl)-1-methyl-2-oxo-1,2-dihydro-1,5-naphthyridine-3-carbonitrile] | 1700 nM | – | 1500 nM | 59000 nM | –
CC(C)c1ccc(OC2CCN(c3c([N+](=O)[O-])c(=O)n(C)c4ccc(F)cc34)CC2)cc1 [Example 2, 6-fluoro-4-(4-(4-isopropylphenoxy)piperidin-1-yl)-1-methyl-3-nitroquinolin-2(1H)-one] | – | – | 340 nM | – | –
Cn1c(=O)c(C#N)c(N2CCC(Oc3cccc(Cl)c3)CC2)c2nc(Cl)ccc21 [Example 27, 6-chloro-4-(4-(3-chlorophenoxy)piperidin-1-yl)-1-methyl-2-oxo-1,2-dihydro-1,5-naphthyridine-3-carbonitrile] | – | 7400 nM | 73 nM | – | –
Cc1cc(Br)ccc1OC1CCN(c2c(C#N)c(=O)n(C)c3ccc(Cl)nc23)CC1 [Example 26, 4-(4-(4-bromo-2-methylphenoxy)piperidin-1-yl)-6-chloro-1-methyl-2-oxo-1,2-dihydro-1,5-naphthyridine-3-carbonitrile] | – | 10000 nM | 2700 nM | – | –
Cn1c(=O)c(C#N)c(N2CCC(Oc3ccc(F)cc3)CC2)c2nc(Cl)ccc21 [Example 20, 6-chloro-4-(4-(4-fluorophenoxy)piperidin-1-yl)-1-methyl-2-oxo-1,2-dihydro-1,5-naphthyridine-3-carbonitrile] | 430 nM | – | 870 nM | 16000 nM | –
Cn1c(=O)c(C#N)c(N2CCC(Oc3ccc(C#N)cc3)CC2)c2nc(Cl)ccc21 [Example 32, 6-chloro-4-(4-(4-cyanophenoxy)piperidin-1-yl)-1-methyl-2-oxo-1,2-dihydro-1,5-naphthyridine-3-carbonitrile] | – | 10000 nM | – | – | –
Cn1c(=O)c([N+](=O)[O-])c(N2CCC(Oc3cccc4[nH]ncc34)CC2)c2cc(F)ccc21 [Example 5, 4-(4-((1H-indazol-4-yl)oxy)piperidin-1-yl)-6-fluoro-1-methyl-3-nitroquinolin-2(1H)-one] | – | – | 10000 nM | – | –
CC(C)c1ccc(OC2CCN(c3c(C#N)c(=O)n(C)c4ccc(Cl)nc34)CC2)cc1 [Example 37, 6-chloro-4-(4-(4-isopropylphenoxy)piperidin-1-yl)-1-methyl-2-oxo-1,2-dihydro-1,5-naphthyridine-3-carbonitrile] | 490 nM | – | 1100 nM | 240000 nM | –
Cc1cccc(OC2CCN(c3c([N+](=O)[O-])c(=O)n(C)c4ccc(F)cc34)CC2)c1 [Example 4, 6-fluoro-1-methyl-3-nitro-4-(4-(m-tolyloxy)piperidin-1-yl)quinolin-2(1H)-one] | – | – | 440 nM | – | –
Cc1cc(F)cc(OC2CCN(c3c(C#N)c(=O)n(C)c4ccc(Cl)nc34)CC2)c1 [Example 28] | 1600 nM | – | – | 5400 nM | IC50 [2]: 10000 nM
